This series can be described thus: gradient 5% acetonitrile 3 min, to 50% in 2 min, to 85% in 15 min, held 3 min, 100 µL/min. To be noted: column: Zorbax Extend-C18 2.1 x 50 mm; eluents: water / acetonitrile, 0.1% formic acid. Put shortly:
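In both positive and negative ionization mode, a quadrupole time-of-flight mass spectrometer coupled to HPLC analyzed pure standards run in mixtures of ~100 molecules. The Zorbax Extend-C18 column (2.1 × 50 mm, 1.8 μm) was operated at 100 μL/min with water and acetonitrile, each containing 0.1% formic acid. The dead volume was 40 μL and the dwell volume 900 μL. Retention time came from adduct peaks that were computationally picked and individually inspected by hand.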
Regarding `COc1ccc(C(O)CN2CCN(c3ccccc3C)CC2)cc1OC` (centres undefined), the RP-LC retention time amounted to 654 s.
Next, `CC(C)[Si]1(C(C)C)OCC2OC(n3cnc4c(N)ncnc43)C(N)C2O[Si](C(C)C)(C(C)C)O1` (centres undefined): 828 s; `Cc1cnc(C(=O)NCC23CCC=C2N(C)C(=O)CC3)cn1` (centres undefined): 666 s; `CCOC(=O)c1nc(N(C)c2cccc(C)c2)c2ccccc2n1`: 982 s.
As for `Cc1cc(C(=O)N2CCOCC2)nn1CC(=O)NCc1ccc2c(c1)OCO2`, the RP-LC retention time stood at 634 s.
In turn, `CCOC(=O)CNC(=O)Nc1ccccc1-c1cc2ccccc2[nH]1` gave an RP-LC retention time of 866 s.
Next, `CC(C)NC(=O)N1CC=C(c2cn(C(C)C)c3ncccc23)CC1`: 632 s; `O=C(NC1CCCN(c2cc(-c3ccccc3)[nH]n2)C1)c1ccc2c(c1)OCO2` (centres undefined): 760 s; `O=C(NCCc1nc(-c2ccc3c(c2)OCO3)n[nH]1)c1ccc(F)c(Cl)c1`: 743 s.
For the compound `O=C(NCCc1ccc(Cl)cc1)C(=O)Nc1ccc(F)cc1F`, the RP-LC retention time was found to be 971 s.
`CC(C)NC(=O)N1CCC(OC2CCN(Cc3ccccc3)CC2)CC1` came in with an RP-LC retention time of 564 s.
Under `CCOc1ccc(NC(=O)Cn2cnc3cc4c(cc32)OCCO4)cc1` stands 661 s; under `COc1ccc(CN2C(=O)COC[C@H]2C(=O)NCC2CC2)c(OC)c1`, 696 s.
Regarding `CC(C)C(=O)Nc1nc(-c2cccc3ccccc23)cs1`, the RP-LC retention time was 1020 s.
Take `O=C(Cc1cccs1)N1CCCC(c2ccnc(-c3ccc(F)cc3)n2)C1` (centres undefined): the RP-LC retention time came to 1050 s.
The compound `CC1OC2(CS1)CN1CCC2CC1` (centres undefined) had an RP-LC retention time of 619 s.
Regarding `CCn1c(=O)n(CC)c2cc(N3CCCC3)c(NC(=O)NCc3cccc(F)c3)cc21`, the RP-LC retention time worked out at 654 s.
`CCC(=O)NCCc1csc(C2CCN(C(=O)C3CCC3)CC2)n1` came in with an RP-LC retention time of 679 s.
For `O=C(Nc1cnc(-c2ccc(F)cc2)nc1)c1ccc(F)cc1`, the RP-LC retention time was 1000 s.
Regarding `Cc1nc(-c2ccc3c(c2)n(CC(=O)NCc2ccc4c(c2)OCO4)c(=O)n3C(C)C)no1`, the RP-LC retention time stood at 619 s.
Next, `COC(=O)c1sc2ccc(NC(=O)C3CCN(S(=O)(=O)N4CCOCC4)CC3)cc2c1OC`: 853 s; `CC(C)n1cnc2ccc(-c3noc(-c4ccccc4)n3)cc21`: 793 s; `COc1cccc(C(=O)N2CCC3(CC2)NC(=O)c2cccc(Cl)c2N3)c1`: 749 s.
Compound `O=C(NCc1ccc(F)cc1)Nc1ccc2c(c1)CCN2S(=O)(=O)c1ccccc1` gave an RP-LC retention time of 904 s.
In the case of `CN(C[C@@H]1COCCO1)S(=O)(=O)Nc1ccc2ccc3ncc(-c4cnn(C)c4)cc3c(=O)c2c1`, the RP-LC retention time was determined as 778 s.
Turning to `CCc1nnc(-c2ccc3ccn(CC(=O)N4CCN(c5ccc(F)cc5)CC4)c3c2)o1`, the RP-LC retention time is 878 s.
Next, `CCc1cccc(NC(=O)Cn2nc(N3CCCC3)c3ccccc3c2=O)c1`: 1000 s; `CCCNC(=O)N1CCCC1c1nc(-c2cccc(Cl)c2)no1` (centres undefined): 904 s; `CCN1CCn2cc(S(=O)(=O)NCc3ccc(C)c(C)c3)cc2C1=O`: 761 s.
In turn, `CCC(=O)Nc1c(C(=O)NC)oc2ccccc12` yielded an RP-LC retention time of 712 s.
Consider `Cc1ccc(CNC(=O)C2(CCO)CCN(Cc3ccccc3)C2)o1` (centres undefined), for which the RP-LC retention time was determined as 656 s.
`CC1CCN(C(=O)c2cc3c(s2)CCC(C(=O)O)C3)CC1` (centres undefined) showed an RP-LC retention time of 580 s.
In turn, `COCc1noc([C@@H]2CN(C(=O)C3CC=CC3)C[C@H]2C(N)=O)n1` came in with an RP-LC retention time of 609 s.
With `O=C(NCCn1ncc2c(=O)n(Cc3ccccc3F)cnc21)c1ccc2c(c1)OCO2`, the RP-LC retention time was 678 s.
The compound `Cc1nn(-c2nc(-c3ccc(F)cc3)cs2)c(C)c1CC(=O)N1CCCCCC1` returned an RP-LC retention time of 1210 s.
Next, `O=C(Nc1ccccc1Cl)C(=O)c1cn(CC(=O)N2CCOCC2)c2ccccc12`: 1040 s; `CCOC(=O)c1cc(S(=O)(=O)N2CCCC2C(=O)Nc2cc(F)ccc2F)cn1C` (centres undefined): 982 s; `O=C(CN1C(=O)C(C(=O)N2CCCCC2)Sc2ccccc21)NC1CCCCCC1` (centres undefined): 1090 s.
For `CC(C)c1nnc(-c2cccnc2N2CCN(C(=O)c3ccoc3)CC2)o1`, the RP-LC retention time worked out at 725 s.
Under `CC(C)C(=O)Nc1ccc(CCc2nc3ccc(C(=O)NC4CCCCC4)cc3[nH]2)cc1` stands 672 s.
Compound `CCCc1ccc(S(=O)(=O)Nc2ccc3nc(S(=O)(=O)CCC)sc3c2)cc1` registered an RP-LC retention time of 1080 s.
Consider `Cc1ccc(NC(=O)Cn2cnc3nc(N4CCCC(C(=O)NC5CC5)C4)sc3c2=O)c(F)c1` (centres undefined), for which the RP-LC retention time was found to be 680 s.
`COc1ccc(Cc2nnc(NC(=O)c3cnc4ccccc4n3)o2)cc1` registered an RP-LC retention time of 722 s.
Consider `Cc1nc(C)c(C(=O)Nc2nc(-c3ccc(F)cc3)c(C)s2)s1`, for which the RP-LC retention time worked out at 956 s.
In turn, `CCC1(CC)NC(=O)N(CC(=O)Nc2ccc(C(=O)OC)cc2)C1=O` came in with an RP-LC retention time of 671 s.
As to `Cn1c(=O)n(C)c2cc(CNc3cc(C(=O)O)ccc3Cl)ccc21`, the RP-LC retention time worked out at 738 s.
The compound `CC(C)(Oc1ccc(Cl)cc1)C(=O)NC1CCCCC1N1C(=O)CSC1=O` (centres undefined) came in with an RP-LC retention time of 972 s.
Next, `COc1ccc(CN2C[C@@H]3C(=O)N(CCCN4CCCC4=O)C(=O)[C@@H]3C2)c(OC)c1`: 598 s; `CCc1ccc(S(=O)(=O)N2CCC3(CC2)NCCN=C3NCc2ccccc2C)cc1`: 791 s.
Regarding `Cc1cccc(NC(=O)C2CCCN(S(=O)(=O)N3CCC(C)CC3)C2)c1C` (centres undefined), the RP-LC retention time came to 1030 s.
Next, `CCOc1cc(C(=O)N2CCN(c3c(C)n(C)c(=O)n(C)c3=O)CC2)cc(OCC)c1OCC`: 810 s; `COC(=O)c1cccc(C(=O)Nc2ccc(F)cc2C)n1`: 853 s.
Under `Cc1cc(Cl)ccc1NS(=O)(=O)c1cc(-c2[nH]ncc2C(=O)N(C)C)oc1C` stands 730 s.
Under `O=C(Nc1ccc2c(c1)CN(S(=O)(=O)c1ccccc1)CC2)c1cc(-c2ccco2)on1` stands 1010 s.
As for `Cc1ccc(NC(=O)C2CCCN(c3ccc(=O)n(-c4cccc(Cl)c4)n3)C2)c(C)c1` (centres undefined), the RP-LC retention time was 964 s.
For `CCn1cc(-c2nc(C(=O)Nc3ccc(Cl)cc3F)cs2)c2cccnc21`, the RP-LC retention time came to 1350 s.
Next, `Cc1csc(-c2cc(S(=O)(=O)N3CCCC3)cn2CC(=O)N2CCCCC2)n1`: 875 s; `CC1=C(c2ccc(C)c(C)c2)S(=O)(=O)N=C1N1CCCN(C(=O)CC(C)C)CC1`: 915 s; `O=C(CN1C(=O)C2CCCCN2c2ccc(S(=O)(=O)N3CCCCC3)cc21)NCc1ccccc1` (centres undefined): 988 s.
Take `COCc1nc2cccnc2n1C1CCN(C(=O)Nc2cccc(Br)c2)CC1`: the RP-LC retention time is 768 s.
In turn, `O=C(NC1CCN(Cc2ccccc2)CC1)C1CCCN(c2nccnc2Oc2ccccc2)C1` (centres undefined) had an RP-LC retention time of 680 s.
`Cc1cccc(NC(=O)C2CCCN(S(=O)(=O)c3c[nH]c(C(=O)N4CCCC4)c3)C2)c1` (centres undefined) gave an RP-LC retention time of 589 s.
Turning to `O=C(Nc1cnc(N2CCCC2)nc1)c1cccc(Cl)c1`, the RP-LC retention time worked out at 765 s.
The compound `Cc1cccc(Sc2nccnc2N2CCCC(C(=O)NCCC(C)C)C2)c1` (centres undefined) showed an RP-LC retention time of 1140 s.
Under `Cc1[nH]c(C(=O)Nc2cccc(Br)c2)c(C)c1S(=O)(=O)N1CCCC1` stands 971 s.
Consider `COc1nc2ccccc2nc1N1CCCC(C(=O)Nc2ccc(Cl)cc2)C1` (centres undefined), for which the RP-LC retention time is 1240 s.
`COC(=O)C(NC(=O)N1CCCn2nc(-c3cccnc3)cc2C1)c1ccccc1` (centres undefined): the RP-LC retention time was 616 s.
Regarding `Cc1oc(-c2ccc(Cl)cc2)nc1CN1CCC(C(=O)NCc2ccccn2)CC1`, the RP-LC retention time was determined as 584 s.
In turn, `COc1ccc(OC)c(NC(=O)c2cc(NC(=O)C(C)C)cc3nc(C)ccc23)c1` gave an RP-LC retention time of 663 s.
Next, `Nc1ccc(C(=O)Nc2ccc(Nc3ccncc3)cc2)cc1`: 602 s; `Cc1cccc(NC(=O)C2CCN(C(=O)C3Sc4ccccc4NC3=O)CC2)c1` (centres undefined): 790 s; `CN1c2ccc(F)cc2C(=O)NC12CCN(C(=O)c1ccc(F)cc1)CC2`: 769 s.
Under `O=C(CN1CCN(Cc2ccc(F)cc2)C1=O)NCC1CCCCC1` stands 854 s; under `CCCN(C)C(=O)C1CCN(c2cn[nH]c(=O)c2)CC1`, 597 s.
For the compound `O=c1c2sccc2n(Cc2nc(-c3ccc(F)cc3)no2)c(=O)n1CCc1ccccc1`, the RP-LC retention time is 1140 s.
`CCOC(=O)c1ccc(NC(=O)Cn2nc3n(c2=O)CCCC3)cc1` had an RP-LC retention time of 676 s.
`COc1ccc(-c2ncc3c(n2)CCN(C(=O)Nc2ccc(Cl)cc2)C3)cc1` had an RP-LC retention time of 978 s.
Under `Cn1c(=O)n(CC(=O)O)c(=O)c2c1nc1n2CCCN1c1ccc(F)cc1` stands 632 s; under `COc1ccc(CNC(=O)c2cn(-c3cc(N4CCCC(C)C4)ncn3)cn2)cc1` (centres undefined), 974 s.
